Measured values taken from ChEMBL document CHEMBL6103597, “Opto-Epigenetic Regulation of Histone Arginine Asymmetric Dimethylation via Type I Protein Arginine Methyltransferase Inhibition” (J Med Chem, 2025).
Active and inactive are the calls of the source. No cut-off for these calls is given here.

Assays:
[1] = target: Protein arginine N-methyltransferase 6 (Homo sapiens) (UniProt Q96LA8); assay: Inhibition of PRMT6 in human A549 cells assessed as decrease in H4R3me2a level at 0.1 uM incubated for 24 hrs by Western blot analysis; type: cell-based
Sequence of Protein arginine N-methyltransferase 6 (Homo sapiens) (Q96LA8 whole entry, looked up): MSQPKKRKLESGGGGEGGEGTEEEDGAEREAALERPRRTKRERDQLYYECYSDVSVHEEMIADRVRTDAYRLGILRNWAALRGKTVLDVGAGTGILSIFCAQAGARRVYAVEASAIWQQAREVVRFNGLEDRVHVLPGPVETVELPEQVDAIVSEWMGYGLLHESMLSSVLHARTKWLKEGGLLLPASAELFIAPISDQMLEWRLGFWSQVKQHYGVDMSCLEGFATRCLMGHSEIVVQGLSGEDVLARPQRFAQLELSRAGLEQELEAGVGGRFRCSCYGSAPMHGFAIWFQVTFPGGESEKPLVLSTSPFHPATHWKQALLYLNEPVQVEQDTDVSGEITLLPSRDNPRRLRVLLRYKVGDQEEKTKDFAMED

[2] = target: Protein arginine N-methyltransferase 6 (Homo sapiens) (UniProt Q96LA8); assay: Inhibition of PRMT6 in human A549 cells assessed as decrease in H3R2me2a level at 0.1 uM incubated for 24 hrs by Western blot analysis; type: cell-based
[3] = Photochemical property of compound assessed as hypsochromic shift by measuring maximum absorption peak wavelength at 10 uM upon visible light irradiation at 420 nm by UV-Vis absorption spectroscopy; type: physicochemical
[4] = Stability in PBS buffer at pH 7.4 at 37 degreeC assessed as compound remaining under dark condition measured for 72 hrs by HPLC analysis; type: physicochemical; settings: read-out: Stability
A549 [5] = assay: Effect on transcriptomic profile in human A549 cells at 0.1 uM incubated for 24 hrs by RNA-sequencing analysis; type: functional, cell-based
A549 [6] = assay: Effect on cell cycle-related pathway in human A549 cells at 0.1 uM incubated for 24 hrs by GSEA analysis; type: functional, cell-based
HUVEC = assay: Cytotoxicity against HUVEC cells at 50 uM incubated for 72 hrs under dark condition; type: toxicity, cell-based; settings: human
A549 [7] = assay: Effect on DNA replication-related pathway in human A549 cells at 0.1 uM incubated for 24 hrs by GSEA analysis; type: functional, cell-based
[8] = Photochemical property of compound assessed as maximum fluorescence emission wavelength at 10 uM upon visible light irradiation at 420 nm by UV-Vis absorption spectroscopy; type: physicochemical
A549 [9] = assay: Effect on DNA replication-related pathway in human A549 cells at 0.1 uM incubated for 24 hrs followed by light irradiation at 420 nm for 4 mins by GSEA analysis; type: functional, cell-based; settings: time 1444.0 min
A549 [10] = assay: Effect on transcriptomic profile in human A549 cells at 0.1 uM incubated for 24 hrs followed by light irradiation at 420 nm for 4 mins by RNA-sequencing analysis; type: functional, cell-based; settings: time 1444.0 min
A549 [11] = assay: Effect on transcriptomic profile in human A549 cells assessed as differentially expressed genes at 0.1 uM incubated for 24 hrs followed by light irradiation at 420 nm for 4 mins by RNA-sequencing analysis relative to control; type: functional; settings: time 1444 min, 24.07 h
A549 [12] = assay: Effect on cell cycle-related pathway in human A549 cells at 0.1 uM incubated for 24 hrs followed by light irradiation at 420 nm for 4 mins by GSEA analysis; type: functional, cell-based; settings: time 1444.0 min
A549 [13] = assay: Antiproliferative activity against human A549 cells assessed as cell viability at 10 uM incubated for 72 hrs by MTT assay relative to control; type: functional; settings: read-out: Activity
A549 [14] = assay: Antiproliferative activity against human A549 cells assessed as cell viability at 10 uM incubated for 24 hrs followed by light irradiation at 420 nm for 4 mins and measured after 48 hrs by MTT assay relative to control; type: functional; settings: A549, light or radiation study, 72.07 h, time 4324 min, read-out: Activity
[15] = Prodrug photolysis assessed as drug degradation at 10 uM upon light irradiation at 420 nm for upto 4 mins by HPLC analysis; type: ADME

| SMILES | inhibition [1] | inhibition [2] | Activity [3] | remaining at 72 h [4] | Activity (A549 [5]) | Activity (A549 [6]) | Activity (HUVEC) | Activity (A549 [7]) | Activity [8] | Activity (A549 [9]) | Activity (A549 [10]) | Activity (A549 [11]) | Activity (A549 [12]) | viability at 10 µM (A549 [13]) | viability at 10 µM (A549 [14]) | Stability [15] |
| --- | --- | --- | --- | --- | --- | --- | --- | --- | --- | --- | --- | --- | --- | --- | --- | --- |
| CC(C)Oc1ccc(-c2c[nH]cc2CN(C)CCN)cc1 | Active | Active | – | – | – | – | – | – | – | – | – | – | – | – | – | – |
| CCN(CC)c1ccc2c(COC(=O)NCCN(C)Cc3c[nH]cc3-c3ccc(OC(C)C)cc3)cc(=O)oc2c1 | – | – | 380 nm | > 75% | No effect | No effect | Non-toxic | No effect | 470 nm | Active; Downregulation Of Gene Sets Observed | Active; About 5.4:1 Ratio Between Down-Regulated And Upregulated Genes Observed | ~56% | Active; Downregulation Of Gene Sets Observed | 94.6% | 79.4% | Unstable |
